Measured values taken from paper PMC8948939 (Pharmaceutics, 2022).
Read-outs that look alike come from different tables or passages of the source.

How the values were obtained:
CYP2C9 [1] = target: T1, CYP2C9 (Homo sapiens, UniProt P11712); details: recombinant enzyme, pH 7.5
Experimental: (§1) Supplementary Section S1. Marker reactions for CYP2C19, CYP2C9 and CYP3A4 […]
(§2) for CYP3A4 [1,2] were used to determine (i) intersystem extrapolation factors (ISEF), (ii) […]
(§3) (i) Experiments for the determination of Michaelis-Menten kinetics in HLM were performed at protein concentrations of 0.02, 0.04 and 0.05 mg/mL for the marker reactions of CYP2C19, CYP2C9 and CYP3A4 (n = 3 each), respectively. Two samples were taken from each incubation after 15 and 25 min for investigations on CYP2C19, after 5 and 10 min for CYP2C9 and after 7 and 12 min for CYP3A4, respectively. […]
were applied as substrate concentrations.
For investigations in rhCYP concentrations of 2.5 pmol/mL rhCYP2C19 (n = 3), […]
respectively. […]

CYP2C9 [2] = target: T1, CYP2C9; assay: in vitro; details: microsomes, pH 7.5
Experimental: as §1, §2, §3
(§4) were applied as substrate concentrations. […]

[3] = target: CYP2C9 in human liver microsomes (HLM) (Homo sapiens, UniProt P11712); assay: in vitro; details: pH 7.5
Experimental: as §1, §2, §3, §4

CYP2C19 [4] = target: T2, CYP2C19 (Homo sapiens, UniProt P33261); assay: IC50 and IC50 shift on CYP2C19 marker reaction (S-mephenytoin 4-hydroxylation) in HLM; type: in vitro ADME; design: tissue Corning Inc; host or cells: pooled human liver microsomes (150 donors)
Experimental: (§5) Remaining activity (A, %) was calculated as the ratio of reaction velocities in the inhibited and non-inhibited incubations. IC50 and the steepness of the inhibition curve (H) were estimated by fitting the four-parameter inhibition model to the experimental data (Equation (9)). Maximum (Amax) and baseline activity (A0) were fixed to 100 and 0, respectively. […] (9) A,%=A0+Amax−A0/1+logCInhib/logIC50^H=100/1+logCInhib/logIC50^H […]
as §1, §2
(§6) Each probe substrate was incubated in the presence of each inhibitor. […]
(§7) were performed at concentrations of 0.2, 0.08 and 0.05 mg/mL HLM for CYP2C19, CYP2C9 and CYP3A4, respectively. IC50 and IC50 shift assays were performed at substrate […]
(§8) Reaction times were identical to those described

HLM, HIM and rhCYP = assay: Pre-investigations of metabolite formation from VRC in HLM, HIM and rhCYP; type: in vitro ADME, human
Excerpt: As an essential prerequisite, the linearity of metabolite formation with regard to reaction time and enzyme concentration, as well as the absence of substrate depletion (<10%), were investigated.

CYP2C19 [5] = target: T2, CYP2C19; assay: Type of reversible inhibition and Ki on CYP2C19 (S-mephenytoin 4-hydroxylation) in HLM; type: in vitro ADME; design: tissue Corning Inc; host or cells: pooled human liver microsomes (150 donors)
Experimental: (§9) Reaction velocities were investigated in function of the substrate ([S]) and inhibitor ([I]) concentration to determine KM, Vmax and Ki of the reaction. The obtained data were used to fit the three main models of reversible inhibition, i.e., competitive (Equation (10)), noncompetitive (Equation (11)) and uncompetitive (Equation (12)) using the “nls” function in R. The type of inhibition was determined according to the best model fit assessed with Akaike’s information criteria (AIC). […] (10) V=Vmax/1+KM/S1+I/Ki (11) V=Vmax/1+KM/S1+I/Ki (12) V=Vmax/1+KM/S+I/Ki […]
as §1, §2, §3, §4, §6, §7, §8

[6] = cited from earlier work
CYP3A4 [7] = target: T3, CYP3A4 (Homo sapiens, UniProt P08684); assay: Type of reversible inhibition and Ki on CYP3A4 (midazolam 1-hydroxylation) in HLM; type: in vitro ADME; design: tissue Corning Inc; host or cells: pooled human liver microsomes (150 donors); details: CYP3A4
Experimental: as §9, §1, §2, §3, §4, §6, §7, §8

CYP3A4 [8] = target: T3, CYP3A4; assay: IC50 and IC50 shift on CYP3A4 marker reaction (midazolam 1-hydroxylation) in HLM; type: in vitro ADME; design: tissue Corning Inc; host or cells: pooled human liver microsomes (150 donors); details: for IC50 shift: human, human liver microsomes, pH 7.5, probe midazolam 1-hydroxylation (4.60 µM midazolam)
Experimental: as §5, §1, §2
Two samples were taken […]
from each incubation after 15 and 25 min for investigations on CYP2C19, after 5 and 10 min for CYP2C9 and after 7 and 12 min for CYP3A4, respectively. […]
CYP2C9 and CYP3A4, respectively. IC50 and IC50 shift assays were performed at substrate […]
as §8

[9] = tested on: human liver microsomes (HLM); assay: Metabolic stability of voriconazole N-oxide and hydroxyvoriconazole in HLM; type: in vitro ADME; details: HLM 0.2 mg/mL
Experimental: An incubation without HLM served as a control (n = 1).

CYP2C9 [10] = target: T1, CYP2C9; assay: Type of reversible inhibition and Ki on CYP2C9 (diclofenac 4-hydroxylation) in HLM; type: in vitro ADME; design: tissue Corning Inc; host or cells: pooled human liver microsomes (150 donors)
Experimental: as §9, §1, §2, §3, §4, §6, §7, §8

CYP2C9 [11] = target: T1, CYP2C9; assay: IC50 and IC50 shift on CYP2C9 marker reaction (diclofenac 4-hydroxylation) in HLM; type: in vitro ADME; design: tissue Corning Inc; host or cells: pooled human liver microsomes (150 donors)
Experimental: as §5
Supplementary Section S1. […]
Two samples were taken
from each incubation after 15 and 25 min for investigations on CYP2C19, after 5 and
10 min for CYP2C9 and after 7 and 12 min for CYP3A4, respectively. […]
CYP2C9 and CYP3A4, respectively. IC50 and IC50 shift assays were performed at substrate
as §8

[12] = tested on: CYP2C19 (loratadine), CYP2C9 (sulfaphenazole), CYP3A4 (ketoconazole); assay: in vitro; details: human; for inhibition at 3 µM: pH 7.5; for activity: pH 7.5, % of Uninhibited Control (voriconazole N-oxidation velocity), HLM
[13] = tested on: human liver microsomes (HLM); details: mean over voriconazole 0.5, 1, 2, 3 µM
not read = substrate: C[C@@H](c1ncncc1F)[C@](O)(Cn1cncn1)c1ccc(F)cc1F; assay: not read; details: other: N-oxidation of voriconazole
[14] = 30 min pre-incubation in the absence of NADPH
[15] = 30 min pre-incubation in the absence of NADPH, read-out: IC50 NADPH (−) (95% Confidence Interval)
[16] = 30 min pre-incubation in the presence of NADPH
[17] = 30 min pre-incubation in the presence of NADPH, read-out: IC50 NADPH (+) (95% Confidence Interval)

T3 sequence (P08684 2-503 limits assumed): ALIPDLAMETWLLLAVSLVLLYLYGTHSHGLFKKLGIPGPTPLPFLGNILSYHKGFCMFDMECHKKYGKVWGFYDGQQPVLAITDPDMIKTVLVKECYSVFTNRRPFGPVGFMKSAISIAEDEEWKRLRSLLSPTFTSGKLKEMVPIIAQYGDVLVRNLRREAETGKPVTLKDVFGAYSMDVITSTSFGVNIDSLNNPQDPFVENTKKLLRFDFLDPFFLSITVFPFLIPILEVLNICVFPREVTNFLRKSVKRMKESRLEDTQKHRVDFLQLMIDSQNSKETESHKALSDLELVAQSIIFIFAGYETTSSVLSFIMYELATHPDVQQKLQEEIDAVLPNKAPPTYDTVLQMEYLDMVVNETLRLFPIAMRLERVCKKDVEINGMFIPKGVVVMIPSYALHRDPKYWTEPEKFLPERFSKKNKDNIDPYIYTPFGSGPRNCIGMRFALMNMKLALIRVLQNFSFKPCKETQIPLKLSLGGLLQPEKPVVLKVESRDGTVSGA

O=C(O)Cc1ccccc1Nc1c(Cl)cccc1Cl [Diclofenac, diclofenac]
CLint, rhCYP (CYP2C9 [1]): 5.89 µL/min/pmol
microsomal CLint (CYP2C9 [2]): 408 µL/min/mg
Vmax,HLM (95% CI) [3]: 1693 pmol/min/mg

C[C@@H](c1ncnc(O)c1F)[C@](O)(Cn1cncn1)c1ccc(F)cc1F [OH–VRC, hydroxyvoriconazole]
IC50 Shift NADPH (−) (CYP2C19 [4]; [14]): 1.17
IC50 (CYP2C19 [4]; [15]): > 34.2 µM
IC50 Shift NADPH (+) (CYP2C19 [4]; [16]): 1.24
IC50 (CYP2C19 [4]; [17]): 33.6 µM
time dependence of inhibition (CYP2C19 [4]; IC50 shift assay): Time-independent inhibition
IC50 (CYP2C19 [4]; without pre-incubation, […] S-mephenytoin, HLM, NO and OH–VRC estimates exceed applied concentrations (max 34.2 µM), read-out: IC50 (95% Confidence Interval)): > 34.2 µM
OH–VRC formation from VRC (HLM, HIM and rhCYP): not observed
Type of Reversible Inhibition (CYP2C19 [5]; CYP2C19, best model fit by AIC): competitive
inhibitory effect on CYP2C19 relative to VRC (fold lower, from Ki) (CYP2C19 [5]; compared to VRC): 6.1 fold
Ki (CYP2C19 [5]; read-out: Ki (95% CI)): 11.6 µM
plasma concentrations, fold lower than those of NO [6]: up to 30 fold
Type of Reversible Inhibition (CYP3A4 [7]; best model fit by AIC): noncompetitive
Ki (CYP3A4 [7]; midazolam 1-hydroxylation, HLM, read-out: Ki (95% CI)): 2.53 µM
IC50 Shift NADPH (−) (CYP3A4 [8]; [14]): 1.76
IC50 (CYP3A4 [8]; [15]): 0.579 µM
IC50 (CYP3A4 [8]; [17]): 1.57 µM
time dependence of inhibition (CYP3A4 [8]; IC50 shift assay): Time-independent inhibition
IC50 shift (CYP3A4 [8]; [14]): > 1.5
IC50 shift (CYP3A4 [8]; [16]): 0.65
IC50 (CYP3A4 [8]; without pre-incubation, 4.60 µM midazolam, HLM, read-out: IC50 (95% Confidence Interval)): 1.02 µM
depletion over time when incubated directly with HLM ([9]; 5-60 min, 0.137 and 1.10 µM): no depletion
% compared to a control incubation without HLM after 60 min ([9]; high concentration (1.10 µM), single replicates): 94.7%
Type of Reversible Inhibition (CYP2C9 [10]; CYP2C9, best model fit by AIC): competitive
Ki (CYP2C9 [10]; read-out: Ki (95% CI)): 2.8 µM
IC50 (CYP2C9 [11]; [15]): 3.68 µM
IC50 (CYP2C9 [11]; [17]): 3.64 µM
time dependence of inhibition (CYP2C9 [11]; IC50 shift assay): Time-independent inhibition
IC50 shift (CYP2C9 [11]; human, human liver microsomes, pH 7.5, probe diclofenac 4-hydroxylation (4.73 µM diclofenac), 30 min pre-incubation in the absence of NADPH): 0.997
IC50 shift at 30 min (CYP2C9 [11]; human, human liver microsomes, pH 7.5, probe diclofenac (4-hydroxylation), 4.73 µM, 30 min pre-incubation in the presence of NADPH): 1.01
IC50 (CYP2C9 [11]; without pre-incubation, 4.73 µM diclofenac, HLM, read-out: IC50 (95% Confidence Interval)): 3.67 µM

CC(=O)N1CCN(c2ccc(OCC3COC(Cn4ccnc4)(c4ccc(Cl)cc4Cl)O3)cc2)CC1 (centres unmarked) [ketoconazole]
inhibition at 3 µM [12]: 47.6%
activity ([12]; voriconazole 0.5 µM): 49.8%
activity ([12]; voriconazole 1 µM): 48.4%
activity ([12]; voriconazole 2 µM): 53.6%
activity ([12]; voriconazole 3 µM): 57.9%
Mean (SD) % of Uninhibited Control [13]: 52.4 (4.26) %

Nc1ccc(S(=O)(=O)Nc2ccnn2-c2ccccc2)cc1 [sulfaphenazole]
inhibition at 3 µM [12]: 36.2%
activity ([12]; voriconazole 0.5 µM): 64.8%
activity ([12]; voriconazole 1 µM): 60.7%
activity ([12]; voriconazole 2 µM): 62.6%
activity ([12]; voriconazole 3 µM): 66.9%
Mean (SD) % of Uninhibited Control [13]: 63.8 (2.69) %

B1: rhCYP2C19 (Homo sapiens) (protein)
chain: MDPFVVLVLCLSCLLLLSIWRQSSGRGKLPPGPTPLPVIGNILQIDIKDVSKSLTNLSKIYGPVFTLYFGLERMVVLHGYEVVKEALIDLGEEFSGRGHFPLAERANRGFGIVFSNGKRWKEIRRFSLMTLRNFGMGKRSIEDRVQEEARCLVEELRKTKASPCDPTFILGCAPCNVICSIIFQKRFDYKDQQFLNLMEKLNENIRIVSTPWIQICNNFPTIIDYFPGTHNKLLKNLAFMESDILEKVKEHQESMDINNPRDFIDCFLIKMEKEKQNQQSEFTIENLVITAADLLGAGTETTSTTLRYALLLLLKHPEVTAKVQEEIERVIGRNRSPCMQDRGHMPYTDAVVHEVQRYIDLIPTSLPHAVTCDVKFRNYLIPKGTTILTSLTSVLHDNKEFPNPEMFDPRHFLDEGGNFKKSNYFMPFSAGKRICVGEGLARMELFLFLTFILQNFNLKSLIDPKDLDTTPVVNGFASVPPFYQLCFIPV
Km (not read; rhCYP2C19, pH 7.5): 1.31 (0.862–1.75) µM

B2: rhCYP2C9 (Homo sapiens) (protein)
chain: MDSLVVLVLCLSCLLLLSLWRQSSGRGKLPPGPTPLPVIGNILQIGIKDISKSLTNLSKVYGPVFTLYFGLKPIVVLHGYEAVKEALIDLGEEFSGRGIFPLAERANRGFGIVFSNGKKWKEIRRFSLMTLRNFGMGKRSIEDRVQEEARCLVEELRKTKASPCDPTFILGCAPCNVICSIIFHKRFDYKDQQFLNLMEKLNENIKILSSPWIQICNNFSPIIDYFPGTHNKLLKNVAFMKSYILEKVKEHQESMDMNNPQDFIDCFLMKMEKEKHNQPSEFTIESLENTAVDLFGAGTETTSTTLRYALLLLLKHPEVTAKVQEEIERVIGRNRSPCMQDRSHMPYTDAVVHEVQRYIDLLPTSLPHAVTCDIKFRNYLIPKGTTILISLTSVLHDNKEFPNPEMFDPHHFLDEGGNFKKSKYFMPFSAGKRICVGEALAGMELFLFLTSILQNFNLKSLVDPKNLDTTPVVNGFASVPPFYQLCFIPV
Km (not read; rhCYP2C9, pH 7.5): 4.06 (3.32–4.81) µM
